Results reported in patent US20240299321A1, “METHODS TO SENSITIZE CANCER CELLS AND STANDARDIZED SCREENING ASSAY FOR IMMUNOTHERAPY” (THE TRUSTEES OF INDIANA UNIVERSITY, priority 2020, published 2024).

How the values were obtained:
[1] = test system: EO771 (Luc+OVA+) tumor organoids; assay: EO771 tumor organoid and OVA-specific CD8+ T cell co-culture cytotoxicity; assay type: cell-based, mouse; settings: for outcome of combined 2D co-culture, tumor organoid co-culture and antigen presentation screens: 1 μM, 48 h treatment; for organoid dissociation / tumor cell death rates: co-culture with T cells
From the text: In accordance with the present disclosure a drug screen platform was used to identify epigenetic inhibitors that increase a cancer cell's sensitivity to CD8+ T-cell cytotoxicity. In one embodiment the drug screen platform is composed of breast tumor organoids and tumor-specific CD8+ T cells. A lentiviral vector expressing OVA was transduced to the Luc+EO771 cells. The resulting OVA+ cells were orthotopically transplanted to C57BL/6 mice to generate syngeneic mammary tumors. The tumors were harvested and dissociated to single cells for 2D culture and only the adherent cells were collected to generate tumor organoids. 2 ml of tumor organoid culture medium (2×10^5 cells per ml) were seeded into 6-well culture plate with ultra-low attachment surface. After 7-day culture, tumor organoids were filtered by cell strainers with nylon mesh between 70 and 150 μm. The tumor organoids with diameter between 70 and 150 μm were treated with drugs for 48 h in the matrigel-free medium. The treated tumor organoids were then co-cultured with the pre-activated and OVA-specific CD8+ T cells from OT-I mice in the breast organoid culture medium containing 10 ng ml-1 IL2 without matrigel for 24 h. The luciferase released from the EO771 cells was measured using a Dual-luciferase report assay system (Promega) on a BioTek Cytation5 imaging reader, to assess the T cell-mediated cytotoxicity effect.
Cytotoxicity of CD8+ T cells in the co-culture with tumor organoids We generated mouse EO771 (Luc+OVA+) cell line that presents OVA257-264 antigen (from chicken ovalbumin) and human MDA-MB-468 (NY-ESO-1+) cell line that presents NY-ESO-1 antigen for use in the T cell-mediated cytotoxicity assay. OVA-specific CD8+ T cells were isolated from the spleen of OT-I mouse that contains transgenic inserts of Tcra-V2 and Tcrb-V5 genes. The transgenic T cell receptor can recognize the ovalbumin peptide SIINFEKL (OVA257-264; SEQ ID NO: 55). Anti-NY-ESO-1 human CD8^+ T cells (CELLERO™) were used to recognize the NY-ESO-1+ MDA-MB-468 cells. Autologous human CD8+ T cells were isolated from patient tumor tissues and amplified in the DMEM/F12 medium supplemented with 10% FBS, 2 mM Ultraglutamine I, 1% penicillin/streptomycin and 10 ng mL-1 of human IL2 for 7 days. The CD8+ T cells were stimulated by the T-activator CD3/CD28 Dynabeads (Gibco, 11452D for mouse and 11131D for human) for 48 h prior to use for cytotoxicity assay. Mouse and human tumor organoids with diameter between 70 and 150 μm were collected and mixed with corresponding CD8+ T cells in DMEM/F12 medium supplemented with 10% FBS, 2 mM Ultraglutamine I, 1% penicillin/streptomycin and 10 ng mL-1 IL2 (Biolegend, mouse: 575402; human: 589102) at a ratio of organoids versus T cells at 1:200 in the microplates with ultra-low attachment surface. The cells were co-cultured for 24 h and subject to further analyses, such as optical and fluorescence imaging, luciferase assay or flow cytometry.
Epigenetic inhibitor screen on CD8+ T cell-mediated cytotoxicity: The epigenetic inhibitor library (Cayman chemical, Cat #11071, Batch #0522205, data not shown) was used for drug screen. Three different screen methods were conducted. In tumor organoid-T cell co-culture, EO771 (Luc+OVA+) tumor organoids with diameter between 70 and 150 μm were seeded with 100 organoids/well and treated with 1 μM of drug for 48 h. The tumor organoids were centrifuged at 100 rcf for 5 min. The medium were replaced with fresh T cell culture medium containing OVA-specific T cells. A total of 20,000 T cells were added in each well. After co-culture for 24 h, cytotoxicity of tumor cells was measured using a Dual-luciferase report 1000 assay system (Promega) in which luciferase expressed exclusively in the live EO771 (Luc+OVA+) cells was detected by a BioTek Cytation5 imaging reader. Low levels of luciferase from survived tumor cells refer to high cytotoxicity in the co-culture. […]

[2] = test system: OVA-specific CD8+ T cells; assay: T cell effector function in EO771 organoid co-culture; assay type: cell-based, mouse; settings: for IFNγ, GZMB and TNFα expression levels in the co-cultured CD8+ T cells: co-cultured with drug-treated tumor organoids; for secreted IFNγ and TNFα (ELISA): vs T cells co-cultured with untreated organoids
Procedure: T cell effector function analysis: We measured cytokine and cytolytic granule production (IFNγ, GZMB and TNFα) of CD8+ T cells from mouse tumor samples and tumor organoid-T cell co-culture. Briefly, CD8+ T cells were placed into the 24-well plate at 1×10^6 cells/well, stimulated with 1 μM ionomycin and 50 ng ml-1 phorbol 12-myristate 13-acetate (PMA) (Sigma-Aldrich) for 4 h, in the presence of 5 μg ml-1 Brefeldin A (BFA), with the purpose to amplify the expression of intracellular cytokines61. The cells were stained with APC/Cy7-conjugated anti-CD8a (Biolegend) for 15 min and then fixed by 4% PFA. After washing, cells were stained with PerCP/Cy7-conjugated anti-GZMB, APC-conjugated anti-IFNγ and PE-conjugated anti-TNFα (Biolegend) for 15 min. In flow cytometric analyses, T cells stained with isotype control antibodies were used as negative controls for gating the cytokine or granule-producing cells. For T cells from tumor organoid-T cell co-culture, tumor organoids were first digested into single cells with TrypLE Express at 37° C. before APC/Cy7-conjugated anti-CD8a staining. In the IFNγ and TNFα secretion assay (Biolegend), T cells were stimulated with ionomycin and PMA without the presence of BFA. The media were collected for ELISA assay.

[3] = test system: NY-ESO-1+ MDA-MB-468 cells; assay: NY-ESO-1+ MDA-MB-468 organoid and NY-ESO-1-specific CD8+ T cell co-culture cytotoxicity; assay type: cell-based, human; settings: MDA-MB-468/CAF organoids; FIG. 2C
Procedure: Breast tumor organoid culture: Single cells isolated from EO771-derived tumors in tumor-bearing C57BL/6 mice were suspended into cold mouse breast cancer culture medium containing 10% Matrigel (Corning) with a concentration of 2×10^5 cells ml^−1. The cells (2 ml) were seeded into each well of pre-warmed 6-well microplate with ultra-low attachment surface (Corning) and cultured at 37° C. with 5% CO2. The same volume of fresh culture medium was added every other day. After 7-day culture, tumor organoids were collected using cell strainers with pore size of 70 and 150 μm. For human tumor organoid culture, 2 ml of NY-ESO-1+ MDA-MB-468 cells with a concentration of 2×10^5 cells ml-1 were seeded into each well of the prewarmed 6-well microplate with ultra-low attachment surface. The cells were cultured for two days to generate tumor spheroids. The resulting spheroids were mixed with cancer associated fibroblasts (CAFs) with a ratio of 2:1 (tumor cells versus CAFs) and cultured in the human breast cancer organoid culture medium3 for 5 days. Finally, the MDA-MB-468 tumor organoids with diameter of 70˜150 μm were used for co-culture with NY-ESO-1-specific human CD8+ T cells (ASTARTE Biologics). Patient-derived organoids (PDOs) were cultured following the same procedures as mouse EO771 tumor organoids using human breast cancer organoid culture medium.
Cytotoxicity of CD8+ T cells in the co-culture with tumor organoids We generated mouse EO771 (Luc+OVA+) cell line that presents OVA257-264 antigen (from chicken ovalbumin) and human MDA-MB-468 (NY-ESO-1+) cell line that presents NY-ESO-1 antigen for use in the T cell-mediated cytotoxicity assay. OVA-specific CD8+ T cells were isolated from the spleen of OT-I mouse that contains transgenic inserts of Tcra-V2 and Tcrb-V5 genes. The transgenic T cell receptor can recognize the ovalbumin peptide SIINFEKL (OVA257-264; SEQ ID NO: 55). […] The cells were co-cultured for 24 h and subject to further analyses, such as optical and fluorescence imaging, luciferase assay or flow cytometry.

Compound | outcome of combined 2D co-culture, tumor organoid co-culture and antigen presentation screens [1] | organoid dissociation [1] | tumor cell death rates [1] | promotion of T cell-mediated cytotoxicity after knockdown of B2M ([1]; shB2M OVA+ EO771 cells, FIG. 4G) | IFNγ, GZMB and TNFα expression levels in the co-cultured CD8+ T cells [2] | secreted IFNγ and TNFα (ELISA) [2] | T cell-mediated cytotoxicity [3]
Nc1ccccc1NC(=O)CCCCCCC(=O)Nc1ccccc1 [BML-210] | increase the antigenicity of tumor cells and enhance their response to cytotoxic T cells | greater organoid dissociation | higher tumor cell death rates | completely abolished | remarkably up-regulated | much higher levels | pronouncedly induced
C#Cc1cccc(Nc2ncnc3cc(OC)c(OCCCCCCC(=O)NO)cc23)c1 [CUDC-101] | increase the antigenicity of tumor cells and enhance their response to cytotoxic T cells | greater organoid dissociation | higher tumor cell death rates | – | remarkably up-regulated | much higher levels | pronouncedly induced
c1ccc([C@@H]2C[C@H]2NC2CCNCC2)cc1 [GSK-LSD1] | increase the antigenicity of tumor cells and enhance their response to cytotoxic T cells | greater organoid dissociation | higher tumor cell death rates | – | remarkably up-regulated | much higher levels | pronouncedly induced
